In patent US12344610B2, “APOL1 inhibitors and methods of use” (Maze Therapeutics, Inc., priority 2022, dated 2025):

How the values were obtained:
Type in all cases: cell-based
[1] = molecular target: T1, APOL1 G2 (Homo sapiens, UniProt O14791, DEL388-389); assay: APOL1-mediated calcium transport (calcium influx) assay, HEK T-REx/GCaMP6f/APOL1 G2 K6.3 cells, FLIPR TETRA; conditions: prevention of calcium influx; geometric mean of at least 2 assay runs; † = average of a technical replicate from a single assay run
T1 construct: expressed in transfected cells; host or cells: HEK293 T-REx clonal line stably expressing GCaMP6f (HEK T-REx/GCaMP6f/APOL1 G2 K6.3), doxycycline induced
T1 sequence (O14791 with tags, fused parts or gaps DEL388-389): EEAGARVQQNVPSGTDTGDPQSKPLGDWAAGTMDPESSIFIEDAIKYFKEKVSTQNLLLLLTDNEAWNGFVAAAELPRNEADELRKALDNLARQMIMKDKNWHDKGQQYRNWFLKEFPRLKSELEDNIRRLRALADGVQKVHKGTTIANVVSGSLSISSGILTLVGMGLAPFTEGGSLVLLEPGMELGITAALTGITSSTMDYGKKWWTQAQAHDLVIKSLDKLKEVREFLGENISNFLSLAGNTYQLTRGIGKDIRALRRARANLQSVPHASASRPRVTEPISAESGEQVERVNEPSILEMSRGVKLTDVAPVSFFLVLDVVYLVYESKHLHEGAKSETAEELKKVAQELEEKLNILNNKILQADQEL
Description: A HEK293 clonal cell line was generated to stably express GCaMP6f, a genetically encoded calcium indicator, and inducibly express APOL1 G2 (HEK T-REx/GCaMP6f/APOL1 G2 K6.3). Cells were maintained in the following standard complete medium: DMEM with 4.5 g/L glucose and sodium pyruvate (BioWhittaker, Lonza, BE12-614F), supplemented with 10% FBS Performance Plus (Gibco, 16000044), 1% penicillin-streptomycin (BioWhittaker, DE17-602E), 2 mM ultraglutamine-1 (BioWhittaker cat. BE 17-605/U1), 50 μg/mL Zeocin (InvivoGen, ant-zn), 2.5 μg/mL Blasticidin (InvivoGen, ant-bl-5), and 25 μg/mL Hygromycin (InvivoGen, ant-hg). Standard propagation conditions consisted of plating 9×10^6, 4×10^6, 2×10^6 cells in a T225 flasks to be processed after 2, 3, or 4 days, respectively.
A source plate was generated containing 20 serially diluted compounds in DMSO (duplicate 8-point dose response). Next, 0.8 μL of compounds were transferred from the source plate to a destination plate prefilled with 79.2 μL of Ca^2+ free Tyrode's buffer (130 mM NaCl, 5 mM KCl, 1 mM MgCl2, 5 mM NaHCO3, 20 mM HEPES at pH 7.4). The destination plate was placed on a plate shaker (5 seconds at 2000 rpm) to mix. […] All transfer and mixing steps were conducted with an CyBi®-Well dispenser.
Cells were split by gently washing with DPBS (Euroclone, ECB4004L), followed by a 5-minute incubation (humidified, 37° C. with 5% CO2) with trypsin-EDTA solution (Euroclone, ECB3052D). Detached cells were diluted with standard complete medium without selective agents, counted, and plated in a 384 MTP microplate (GR4332CPL, Twin Helix) (10,000 cells/well in 25 μl/well) using a MATRIX WellMate dispenser. Plates were placed into a humidified incubator (37° C. with 5% CO2) overnight. The following day, 20 μL of doxycycline (Sigma, D9891) at 20 ng/mL in standard complete medium was added to cells with a CyBi® Drop dispenser to induce APOL1 G2 expression. After a 6-hour incubation (humidified, 37° C. with 5% CO2), cells were washed 3 times with Ca^2+ free Tyrode's Buffer (130 mM NaCl, 5 mM KCl, 1 mM MgCl2, 5 mM NaHCO3, 20 mM HEPES at pH 7.4) using a BIOTEK Microplate washer, such that 10 μL of buffer remained in each well after the final wash. Assay plates were then stored at room temperature for 10 minutes. Next, 10 μL of diluted compounds were transferred to the assay plate from the 2× compound plate using a CyBi®-Well dispenser. Compound incubation was then carried out at room temperature for 10 minutes. The assay plate was transferred to the FLIPR^TETRA and 20 μL of 10 mM Ca^2+ (final concentration=5 mM) Tyrode's buffer was injected.
Unless otherwise specified, AC50 and values are reported as the geometric mean of at least 2 assay runs on separate days. Each run represents the average of a technical replicate, where each compound was assayed twice in the same plate. A superscript t symbol indicates a value from the average of a technical replicate from a single assay run, where each compound was assayed twice in the same plate.
The AC50 values in Table 39 below reflect the compound's ability to prevent calcium influx by inhibiting APOL1. […] Compounds in Table 39 are referred to by the corresponding Compound Number in Table 1, which is also referred to in the synthetic examples. When one or more of the numbered compounds are identified by stereochemistry (for example, (R)- or (S)-), the specific stereoisomer for which data is provided in Table 39 may be identified by the elution order of such compound as described in the synthetic examples. For example, Compounds 39 and 40 are associated with Step 5 of Example 13, where Compound 39 is the first eluting enantiomer, and Compound 40 is the second eluting enantiomer in the chiral separation of Compound 38. For Table 39 below, n/a represents “not available”.

[2] = tested on: HEK293 cells overexpressing APOL1 G2; assay: APOL1 G2 HEK293 cell rescue assay (reversal of cell death caused by overexpression of APOL1); conditions: geometric mean of at least 2 assay runs, † = single assay run
Method in brief: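 Each compound tested in duplicate wells on one plate per run, with values usually the geometric mean across at least two runs on different days, occasionally from one run only. Read-out: concentration giving half-maximal rescue of APOL1 G2 overexpression-induced death of HEK293 cells.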

[3] = tested on: HEK293 clonal cell line overexpressing APOL1 G1; assay: APOL1 G1 HEK293 cell rescue assay (Example B3); conditions: geometric mean of at least 2 runs, † = single run, ¥ = concentration at 50% rescue estimated (no sigmoidal curve)
Method in brief: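 Rescue of cell death caused by APOL1 G1 overexpression was measured in a clonal HEK293 line. Compounds were tested in duplicate on one plate, and EC50s were geometric means across at least two runs on different days. Some values are estimated 50%-rescue concentrations where curve fitting failed.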

[4] = HEK293 clonal line overexpressing APOL1 G1
[5] = Homo sapiens, HEK293, HEK293 overexpressing APOL1 G2
[6] = Homo sapiens, HEK293, HEK293 clonal line overexpressing APOL1 G1

Work on `CC(COc1ccc2c(c1)CCC(=O)N2C)N1CCC2(CC1)C(=O)Nc1ccc(C#N)cc12` (single isomer, unassigned) [Compound 204, (R) or (S)-1′-{1-[(1-methyl-2-oxo-1,2,3,4-tetrahydroquinolin-6-yl)oxy]propan-2-yl}-2-oxo-1,2-dihydrospiro[indole-3,4′-piperidine]-5-carbonitrile] yielded an AC50 [1] of 869 nM, an EC50 ([2]; HEK293 overexpressing APOL1 G2) of 1550 nM and an EC50 [3, 4] of 1270 nM.
In the case of `CC(COc1ccc(S(C)(=O)=O)cc1)N1CCC2(CC1)C(=O)N(C1CC(O)C1)c1ccc(Cl)cc12` (single isomer, unassigned) [Compound 208, 5-chloro-1′-[(2R) or (2S)-1-(4-methanesulfonylphenoxy)propan-2-yl]-1-[(cis) or (trans)-3-hydroxycyclobutyl]-1,2-dihydrospiro[indole-3,4′-piperidin]-2-one], the AC50 [1] is reported as 1550 nM, the EC50 ([2]; HEK293 overexpressing APOL1 G2) is reported as 238 nM and the EC50 [3, 4] is reported as 554 nM.
Work on `CC(COc1ccc(S(C)(=O)=O)cc1)N1CCC2(CC1)C(=O)N(C1CC(O)C1)c1ccc(Cl)cc12` (single isomer, unassigned) [Compound 209, 5-chloro-1′-[(2R) or (2S)-1-(4-methanesulfonylphenoxy)propan-2-yl]-1-[(trans) or (cis)-3-hydroxycyclobutyl]-1,2-dihydrospiro[indole-3,4′-piperidin]-2-one] yielded an AC50 [1] of 1240 nM, an EC50 ([2]; HEK293 overexpressing APOL1 G2) of 3070 nM and an EC50 [3, 4] of over 2840 nM.
In the case of `C[C@@H](COc1cc(F)c(S(C)(=O)=O)c(F)c1)N1CCC2(CC1)C(=O)Nc1ccc(C#N)cc12` (single isomer, unassigned) [Compound 213], the AC50 [1] is reported as 1120 nM, the EC50 [2, 5] is reported as 189 nM and the EC50 [3, 6] is reported as 497 nM.
For `CS(=O)(=O)c1ccc(OCCN2CCC3(CC2)C(=O)Nc2ccc(C#N)cc23)cc1C(F)CF` (single isomer, unassigned) [Compound 222, 1′-(2-{3-[(1R or 1S)-1,2-difluoroethyl]-4-methanesulfonyl-phenoxy}ethyl)-2-oxo-1,2-dihydrospiro[in-dole-3,4′-piperidine]-5-carbonitrile], the AC50 [1] was 783 nM, the EC50 ([2]; HEK293 overexpressing APOL1 G2) was 141 nM and the EC50 [3, 4] was 605 nM.
Molecule `CC(COc1ccc(C2(S(C)(=O)=O)COC2)cc1)N1CCC2(CC1)C(=O)Nc1ccc(C#N)cc12` (single isomer, unassigned) [Compound 264, (R) or (S)-1′-{1-[4-(3-methanesulfonyloxetan-3-yl)phenoxy]propan-2-yl}-2-oxo-1,2-dihydrospiro[indole-3,4′-piperidine]-5-carbonitrile] has an AC50 [1] of 1950 nM, an EC50 ([2]; HEK293 overexpressing APOL1 G2) of 2250 nM and an EC50 [3, 4] of about 10000 nM.
`C[C@]1(O)C[C@@H](n2ncc3cc(OCCN4CCC5(CC4)C(=O)Nc4ccc(C#N)cc45)cnc32)C1` (single isomer, unassigned) [Compound 437, 2-oxo-1′-[2-({1-[(cis)-3-hydroxy-3-methylcyclobutyl]-1H-pyrazolo[3,4-b]pyridin-5-yl}oxy)ethyl]-1,2-dihydrospiro[indole-3,4′-piperidine]-5-carbonitrile] gave an AC50 [1] of 612 nM, an EC50 [2, 5] of 112 nM and an EC50 [3, 6] of 186 nM.
`CS(=O)(=O)c1ccc(OCCN2CCC3(CC2)C(=O)Nc2c(Cl)cc(Cl)cc23)cc1` [Compound 7, 5,7-dichloro-1′-[2-(4-methanesulfonylphenoxy)ethyl]-1,2-dihydrospiro[indole-3,4′-piperidin]-2-one] was tested, and the AC50 [1] was 601 nM, the EC50 [2, 5] was 279 nM and the EC50 [3, 6] was 764 nM.
For `CS(=O)(=O)c1ccc(OCCN2CCC3(CC2)C(=O)Nc2c(Cl)cc(C#N)cc23)cc1` [Compound 8, 7-chloro-1′-[2-(4-methanesulfonylphenoxy)ethyl]-2-oxo-1,2-dihydrospiro[indole-3,4′-piperidine]-5-carbonitrile], the AC50 [1] was 833 nM, the EC50 [2, 5] was 598 nM and the EC50 [3, 6] was 1440 nM.
With `CS(=O)(=O)c1ccc(OCCN2CCC3(CC2)C(=O)N([C@H]2C[C@@H](O)C2)c2ccccc23)cc1` [Compound 19, 1′-[2-(4-methanesulfonylphenoxy)ethyl]-1-[(cis)-3-hydroxycyclobutyl]-1,2-dihydrospiro[indole-3,4′-piperidin]-2-one] the AC50 [1] was 481 nM, the EC50 [2, 5] was 794 nM and the EC50 [3, 6] was 4810 nM.
`COCCN1C(=O)C2(CCN(CCOc3ccc(S(C)(=O)=O)cc3)CC2)c2ccccc21` [Compound 21, 1′-[2-(4-methanesulfonylphenoxy)ethyl]-1-(2-methoxyethyl)-1,2-dihydrospiro[indole-3,4′-piperidin]-2-one] showed an AC50 [1] of under 213 nM, an EC50 [2, 5] of 1270 nM and an EC50 [3, 6] of over 14400 nM.
`CS(=O)(=O)c1ccc(OCCN2CCC3(CC2)C(=O)N(C2COC2)c2ccc(Cl)cc23)cc1` [Compound 22, 5-chloro-1′-(2-(4-(methylsulfonyl)phenoxy)ethyl)-1-(oxetan-3-yl)spiro[indoline-3,4′-piperidin]-2-one] was tested, and the AC50 [1] was 306 nM, the EC50 [2, 5] was 232 nM and the EC50 [3, 6] was 580 nM.
With `CC(COc1ccc(S(C)(=O)=O)cc1)N1CCC2(CC1)C(=O)Nc1ccccc12` (stereo not drawn) [Compound 28, 1′-(1-(4-(methylsulfonyl)phenoxy)propan-2-yl)spiro[indoline-3,4′-piperidin]-2-one] the AC50 [1] was under 434 nM, the EC50 [2, 5] was 799 nM and the EC50 [3, 6] was 655 nM.
With `CN1C(=O)C2(CCN(CCOc3ccc4ncn(C)c(=O)c4c3)CC2)c2ccccc21` [Compound 29, 1-methyl-1′-{2-[(3-methyl-4-oxo-3,4-dihydroquinazolin-6-yl)oxy]ethyl}-1,2-dihydrospiro[indole-3,4′-piperidin]-2-one] the AC50 [1] was 586 nM, the EC50 [2, 5] was 1420 nM and the EC50 [3, 6] was 5560 nM.
`CN1Cc2cc(OCCN3CCC4(CC3)C(=O)N(C)c3ccccc34)ccc2C1=O` [Compound 30, 1-methyl-1′-{2-[(2-methyl-1-oxo-2,3-dihydro-1H-isoindol-5-yl)oxy]ethyl}-1,2-dihydrospiro[indole-3,4′-piperidin]-2-one] showed an AC50 [1] of 409 nM, an EC50 [2, 5] of 1480 nM and an EC50 [3, 6] of over 22500 nM.
